Laboratory results taken from US20060160869A1, “Ubiquitin ligase inhibitors” (Rigel Pharmaceuticals, Inc., priority 2005, published 2006).

How the values were obtained:
H1299 cells = test: PAD anti-proliferation assay, H1299; assay type: cell-based; details: Homo sapiens, NCI-H1299, 48 hours
Experimental: (§1) A549 (ATCC# CCL 185), HeLa (ATCC# CCL 2), HCT116 (ATCC# CCL-247), and H 1299 (ATCC# CRL-5803) cells were maintained in T175 flasks following the ATCC recommended media and handling procedures. Flasks reaching approximately 70% confluency were trypsinized and resuspended in RPMI media (Cell Gro catalog number 10 040 CM) modified to contain 5% FBS, 100 ug/mlPen/Strep (Cell Gro catalog number 30 002 CL), and 0.3 mg/ml L Glutamine (Cell Gro catalog number 25 003 CL). A 20,000 cells/ml solution was made for plating. Cells were plated in black Packard 96 well plates by placing 100 μl per well (2,000 cells per well).
(§2) Compounds and additional media were added 24′ hours after cell plating. A compound master plate was created with concentrations 500 times greater than the final concentration added to the cells. All compound testing was done in duplicate using 3 fold dilutions starting with 10 mM. All outside wells (and 4 internal wells) were DMSO controls. Taxol and at least one additional control were run on all plates. Three microliters of the compound master plate were added to deep well blocks containing 750 μl of RPMI media. One hundred microliters were transferred from the compound/media deep well blocks to the plated cells resulting in a 500 fold dilution of the compounds. Cells were grown at 37° C., 5% CO2 for 48 hours.
(§3) Cells to be analyzed by photography were fixed and stained. One hundred microliters of media were removed and 100 μl of 2% paraformaldehyde was added to each well. Plates were left on the benchtop for 45 minutes. A staining solution containing 1.55 μl of 1 mg/ml DAPI added to 18.75 ml PBS was warmed for 15 minutes at 37° C. The cells were aspirated prior to washing with 100 μl of PBS. Seventy microliters of PBS were aspirated and 170 μl of the DAPI solution were added to each well of fixed cells. Plates were left at room temperature for one hour then aspirated and washed twice with 100 μl of PBS. The stained cells were left at 4° C. for a minimum of 16 hours before photographic analysis with Array Scan II (Cellomics). Analysis of the photographic images to determine numbers of live cells (proliferation), apoptotic cells and dead cells, were according to the methods described in U.S. Provisional Patent Application Ser. No. 60/406,714, which incorporated herein in its entirety.

[1] = tested on: p53 reporter system in p53 wild-type A549 cell line; test: p53-dependent transcription reporter assay, A549RE; assay type: cell-based; details: p53 +ve cell type; maximal fold induction over DMSO control
Experimental: (§4) Stable lines of U2OS (osteosarcoma; Wild-type p53 positive), HCT116 (colorectal carcinoma; Wild-type p53 positive) and H1299 (lung non-small cell carcinoma; p53 null) carrying p53-dependent transcriptional regulatory element linked to a Luciferase reporter gene and H1299 carrying a 5′-regulatory region of GADD45 linked to Luciferase were used.
(§5) Day 2: The compounds or control drugs were diluted in dimethyl sulfoxide (DMSO) and added to the wells to create 6-points/2-fold serial dilution (20, 10, 5, 2.5, 1.25, 0.625 and 0 μM) for each compound. The DMSO concentration was adjusted to 0.2% in all wells.
(§6) Day 3: Twenty to 24 hours after compound addition, cells were twice washed with PBS and lysed with Glo-lysis buffer (100 μl/well, Promega; Cat#E2661). Plates were subjected to gentle agitation on a table-top shaker for 5 minutes at room temperature. Fifty μl of lysate was transferred to an assay plate to test for luciferase activity and mixed with 2× assay buffer (Promega; Cat# E1483). The reaction mixture was left at room temperature for 2 minutes and then luminescence was measure by a luminometer (Victor™, 1420 Multilabel Counter, Wallac).
(§7) Data analysis was done on Excel software (Microsoft). Values in Table 4 represent maximal fold induction over negative control (DMSO only) and are the mean of at least duplicate experiments.
A549RE is a p53 wild-type A549 cell line containing p53 reporter system. If the compound acts against MDM2, p53 activity increases.

[2] = tested on: p53 reporter system in p53 wild-type U2OS cell line; test: p53-dependent transcription reporter assay, U20SRE; assay type: cell-based; details: p53 +ve cell type; maximal fold induction over DMSO control
Description: as §4
Day 1: Cells were re-plated into 96-well plates at suitable densities to make 50-60% confluence on Day 2. The plating densities are as follows: 7.5×10^3 cells/well (or 2.5×10^4 cells/cm^2) for U2OS; 1.5×10^4 cells/well (or 5.0×10^4 cells/cm^2) for HCT116; and 1.0×10^4 cells/well (or 3.3×10^4 cells/cm^2) for H1299.
as §5, §6, §7
U20SRE is a p53 wild-type U2OS cell line containing p53 reporter system. If the compound acts against MDM2, p53 activity increases.

U2OS cells = test: PAD anti-proliferation assay, U2OS; assay type: cell-based; details: Homo sapiens, 48 hours, read-out: PAD/U20S IC50
Experimental: as §1, §2, §3
Some cell plates were treated with Promega Cell titer Aqueous 1 kit (Promega—VWR catalog number G3580). In this case, 48 hours after the test compound were added, 100 μl of media were removed and 20 μl of cell titer reagent were added to all wells. Plates were incubated at 37° C. for 45 minutes prior to absorbance reads on the Wallac plate reader at 490 nm for 0.1 sec/well. Similar experiments can be carried out using cell lines U2OS and DLD-1.

MDM2 = MDM2 (Homo sapiens, UniProt Q00987); test: MDM2 gel-based E3 ligase assay; assay type: biochemical; details: compound at 20 μM; result in words
Experimental: E3 (His-APC11/APC2—“APC”) auto-ubiquitination was measured as described in U.S. patent application Ser. No. 09/826,312 (Publication No. US-2002-0042083-A1), which is incorporated herein in its entirety. Details of the protocol are described below. Activity in the presence of compound was determined relative to a parallel control in which only DMSO is added. The IC50 values were typically determined using 6 or 8 different concentrations of compound, although as few as 2 concentrations may be used to approximate the IC50 values.
Corning 96-well plates (Corning 3650) were blocked with 100 μl of Blocking Buffer for 1 hour at room temperature. The plates were washed 4 times with 225 μl of 1×PBS and 80 μl of the reaction buffer were added that contained 100 ng/well of Flag-ubiquitin. To this, 10 μl of the test compound diluted in DMSO were added. After the test compound was added, 10 μl of E1 (human), E2 (Ubch5c) and APC in Protein Buffer were added to obtain a final concentration of 5 ng/well of E1, 20 ng/well of E2 and 100 ng/well APC. The plates were shaken for 10 minutes and incubated at room temperature for 1 hour. After incubation, the reaction was stopped by adding 25 μl of loading buffer (non-reducing) per well and the plates were heated at 95° C. for 5 minutes. An aliquot of each well was run on a 10% NugePage Gel and analyzed by Western Blot using the antibody mix and Lumino substrate described below. The luminescence was measured by using a BMG luminescence microplate reader.
hMDM2 Plate/Gel is Mouse double minute 2, human homolog. This protein belongs to the E3 RING finger ligase group.

MDM2, sequence (Q00987 whole entry): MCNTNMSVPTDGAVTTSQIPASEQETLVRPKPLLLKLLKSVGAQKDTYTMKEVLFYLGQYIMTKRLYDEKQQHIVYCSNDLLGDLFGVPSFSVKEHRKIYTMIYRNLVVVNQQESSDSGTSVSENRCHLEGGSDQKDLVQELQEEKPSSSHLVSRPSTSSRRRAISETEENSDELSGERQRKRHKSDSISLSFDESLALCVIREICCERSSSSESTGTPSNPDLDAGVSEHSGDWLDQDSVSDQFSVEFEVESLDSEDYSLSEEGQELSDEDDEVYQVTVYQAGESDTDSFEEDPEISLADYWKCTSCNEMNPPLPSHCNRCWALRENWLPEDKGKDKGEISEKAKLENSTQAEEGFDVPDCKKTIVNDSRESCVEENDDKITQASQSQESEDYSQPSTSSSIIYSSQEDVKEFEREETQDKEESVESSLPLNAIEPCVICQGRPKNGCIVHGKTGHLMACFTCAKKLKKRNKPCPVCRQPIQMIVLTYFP

SMILES | IC50 (H1299 cells) [µM] | Fold Induction of p53 activity, A549RE [1] | Fold Induction of p53 activity, U20SRE [2] | IC50 (U2OS cells) [µM] | MDM2 Gel 20 μM (MDM2)
O=C(c1ccc(CN(Cc2cccc(OC(F)(F)F)c2)c2nc(-c3ccccc3)cs2)cc1)N1CCNCC1 [compound 275] | 1 to 20 | a (a means 2 or less) | b (b means greater than 2) | 1 to 20 | Weak
O=C(c1ccc(CN(Cc2cccc(OC(F)(F)F)c2)c2nc(-c3ccc4ccccc4c3)cs2)cc1)N1CCNCC1 [compound 282, 4-(2-naphthyl)-N-[4-(piperazin-1-ylcarbonyl)benzyl]-N-[3-(trifluoromethoxy)benzyl]-1,3-thiazol-2-amine] | 1 to 20 | a (a means 2 or less) | b (b means greater than 2) | 1 to 20 | Potent
COc1cccc(-c2csc(N(Cc3ccc(C(=O)N4CCNCC4)cc3)Cc3cccc(OC(F)(F)F)c3)n2)c1 [compound 351] | 1 to 20 | a (a means 2 or less) | b (b means greater than 2) | 1 to 20 | Active
COc1cccc(-c2csc(N(CCOc3ccccc3)Cc3ccc(C(=O)N4CCNCC4)cc3)n2)c1 [compound 352] | 1 to 20 | a (a means 2 or less) | b (b means greater than 2) | 1 to 20 | Weak
COc1cccc(CN(Cc2ccc(C(=O)N3CCNCC3)cc2)c2nc(-c3ccc(Br)cc3)cs2)c1OC [compound 353] | 1 to 20 | a (a means 2 or less) | a (a means 2 or less) | 1 to 20 | Active
O=C(c1ccc(CN(CCOc2ccccc2)c2nc(-c3ccc(Cl)c(Cl)c3)cs2)cc1)N1CCNCC1 [compound 360] | 1 to 20 | a (a means 2 or less) | b (b means greater than 2) | 1 to 20 | Potent
